In PubChem BioAssay AID651870 (NMMLSC, 2012):

Test system: AM2.2-beta2AR cells viability, CellTiter-Glo luminescence, 18 h
Assay: cytotoxic effect in β2-adrenoceptor-expressing AM2.2 line, concentration-response curve, toxicity counterscreen for β2-adrenoceptor internalization ligand effort, cell-based, luminescent CellTiter-Glo detection, Powder Set 4 (AID 651870)

SMILES	EC50
Cc1ccc(S(=O)(=O)N2CCCCC2C(=O)N2CCN(c3ccc(C(F)(F)F)cn3)CC2)cc1 (stereo not drawn)	12.8 µM
CN(CC(=O)N1CCN(c2cccc(C(F)(F)F)c2)CC1)S(=O)(=O)c1ccc(F)cc1	31.9 µM
CCCCC(=O)Nc1ccc(S(=O)(=O)N2CCCCC2c2cccnc2)cc1 (stereo not drawn)	8.76 µM
